Assays:
[1] = Inhibition of HCV NS3 protease by FRET assay; parameters: species or system Hepacivirus hominis
[2] = Cytotoxicity against human hepatoma cells; type: cell-based
Hepatitis C virus = assay: Antiviral activity against Hepatitis C virus infected human hepatoma cells by replicon assay; type: functional, organism-based, Hepacivirus hominis

| Structure (SMILES) | Ki [1] | further results |
| --- | --- | --- |
| COc1ccc2c(O[C@@H]3C[C@@H](C(=O)Nc4ccc(Br)cc4)N(C(=O)[C@@H](NC(=O)OC(C)(C)C)C(C)(C)C)C3)cc(-c3ccccc3)nc2c1 | 1800 nM |  |
| COc1ccc2c(O[C@@H]3C[C@@H](C(=O)Nc4ccccc4C(=O)NS(=O)(=O)c4ccc(C(F)(F)F)cc4)N(C(=O)[C@@H](NC(=O)OC(C)(C)C)C(C)(C)C)C3)cc(-c3ccccc3)nc2c1 | 310 nM |  |
| COc1ccc2c(O[C@@H]3C[C@@H](C(=O)Nc4cccc(C(=O)NS(=O)(=O)c5ccccc5)c4)N(C(=O)[C@@H](NC(=O)OC(C)(C)C)C(C)(C)C)C3)cc(-c3ccccc3)nc2c1 | 780 nM |  |
| COc1ccc2c(O[C@@H]3C[C@@H](C(=O)Nc4cc(C(F)(F)F)ccc4C(=O)NS(=O)(=O)c4ccccc4)N(C(=O)[C@@H](NC(=O)OC(C)(C)C)C(C)(C)C)C3)cc(-c3ccccc3)nc2c1 | 350 nM | CC50 [2]: 28000 nM; EC50 (Hepatitis C virus): 5200 nM |
| COc1ccc2c(O[C@@H]3C[C@@H](C(=O)Nc4ccccc4C(=O)NS(=O)(=O)C4CC4)N(C(=O)[C@@H](NC(=O)OC(C)(C)C)C(C)(C)C)C3)cc(-c3ccccc3)nc2c1 | 2000 nM |  |
| COc1ccc2c(O[C@@H]3C[C@@H](C(=O)Nc4ccccc4C(=O)NS(=O)(=O)c4ccccc4)N(C(=O)[C@@H](NC(=O)OC(C)(C)C)C(C)(C)C)C3)cc(-c3ccccc3)nc2c1 | 830 nM |  |
| COc1ccc2c(O[C@@H]3C[C@@H](C(=O)Nc4c(C)cccc4C(=O)NS(=O)(=O)c4ccccc4)N(C(=O)[C@@H](NC(=O)OC(C)(C)C)C(C)(C)C)C3)cc(-c3ccccc3)nc2c1 | 3200 nM |  |
| COc1ccc2c(O[C@@H]3C[C@@H](C(=O)Nc4ccc(C(=O)O)cc4)N(C(=O)[C@@H](NC(=O)OC(C)(C)C)C(C)(C)C)C3)cc(-c3ccccc3)nc2c1 | 12000 nM |  |
| COc1ccc2c(O[C@@H]3C[C@@H](C(=O)Nc4cccc(C(=O)O)c4)N(C(=O)[C@@H](NC(=O)OC(C)(C)C)C(C)(C)C)C3)cc(-c3ccccc3)nc2c1 | 6800 nM |  |
| COc1ccc2c(O[C@@H]3C[C@@H](C(=O)Nc4ccccc4C(=O)NS(=O)(=O)Cc4ccccc4)N(C(=O)[C@@H](NC(=O)OC(C)(C)C)C(C)(C)C)C3)cc(-c3ccccc3)nc2c1 | 610 nM |  |
| COc1ccc2c(O[C@@H]3C[C@@H](C(=O)Nc4ccccc4C(=O)O)N(C(=O)[C@@H](NC(=O)OC(C)(C)C)C(C)(C)C)C3)cc(-c3ccccc3)nc2c1 | 5000 nM |  |
| COc1ccc2c(O[C@@H]3C[C@@H](C(=O)Nc4cccc(Br)c4)N(C(=O)[C@@H](NC(=O)OC(C)(C)C)C(C)(C)C)C3)cc(-c3ccccc3)nc2c1 | 1400 nM |  |
| CC(C)(C)NC(=O)N[C@H](C(=O)N1C[C@H]2[C@@H]([C@H]1C(=O)NC(CC1CCC1)C(=O)C(N)=O)C2(C)C)C(C)(C)C (stereo partly drawn) [BOCEPREVIR] | 14 nM |  |
| COc1ccc2c(O[C@@H]3C[C@H]4C(=O)N[C@]5(C(=O)O)C[C@H]5/C=C\CCCCC[C@H](NC(=O)OC5CCCC5)C(=O)N4C3)cc(-c3csc(NC(C)C)n3)nc2c1 [CILUPREVIR] | 0.66 nM | EC50 (Hepatitis C virus): 3 nM |
| CC(C)(C)OC(=O)N[C@H]1CCCCC/C=C\[C@@H]2C[C@@]2(C(=O)NS(=O)(=O)C2CC2)NC(=O)[C@@H]2C[C@@H](OC(=O)N3Cc4cccc(F)c4C3)CN2C1=O [DANOPREVIR] |  | IC50 [1]: < 0.25 nM; EC50 (Hepatitis C virus): 2.1 nM |
| CCC[C@H](NC(=O)[C@@H]1[C@H]2CCC[C@H]2CN1C(=O)[C@@H](NC(=O)[C@@H](NC(=O)c1cnccn1)C1CCCCC1)C(C)(C)C)C(=O)C(=O)NC1CC1 [TELAPREVIR] | 39 nM | EC50 (Hepatitis C virus): 310 nM |

More lines, in order of falling Ki [1], values ahead:

| Ki [1] | Structure (SMILES) | further results |
| --- | --- | --- |
| 66000 nM | COc1ccc2c(O[C@@H]3C[C@@H](C(=O)O)N(C(=O)[C@@H](NC(=O)OC(C)(C)C)C(C)(C)C)C3)cc(-c3ccccc3)nc2c1 [CORBOXYLIC ACID] |  |
| 17000 nM | COc1ccc2c(O[C@@H]3C[C@@H](C(=O)Nc4ccccc4CC(=O)O)N(C(=O)[C@@H](NC(=O)OC(C)(C)C)C(C)(C)C)C3)cc(-c3ccccc3)nc2c1 |  |
| 5900 nM | COc1ccc2c(O[C@@H]3C[C@@H](C(=O)Nc4ccccc4C(=O)NS(C)(=O)=O)N(C(=O)[C@@H](NC(=O)OC(C)(C)C)C(C)(C)C)C3)cc(-c3ccccc3)nc2c1 |  |
| 3900 nM | COc1ccc2c(O[C@@H]3C[C@@H](C(=O)Nc4ccccc4Br)N(C(=O)[C@@H](NC(=O)OC(C)(C)C)C(C)(C)C)C3)cc(-c3ccccc3)nc2c1 |  |
| 1200 nM | COc1ccc(S(=O)(=O)NC(=O)c2ccccc2NC(=O)[C@@H]2C[C@@H](Oc3cc(-c4ccccc4)nc4cc(OC)ccc34)CN2C(=O)[C@@H](NC(=O)OC(C)(C)C)C(C)(C)C)cc1 |  |
| 1100 nM | COc1ccc2c(O[C@@H]3C[C@@H](C(=O)Nc4ccc(C(=O)NS(=O)(=O)c5ccccc5)cc4)N(C(=O)[C@@H](NC(=O)OC(C)(C)C)C(C)(C)C)C3)cc(-c3ccccc3)nc2c1 |  |
| 920 nM | COc1ccc2c(O[C@@H]3C[C@@H](C(=O)Nc4ccccc4C(=O)NS(=O)(=O)c4cccs4)N(C(=O)[C@@H](NC(=O)OC(C)(C)C)C(C)(C)C)C3)cc(-c3ccccc3)nc2c1 |  |
